Where two headings read alike, the source gives them in different places.
Tests used:
[1] = Non-compartmental plasma pharmacokinetics of galunisertib in patients (LC-MS/MS); type: in vivo, Human; conditions: for Cmax / AUC(0-inf): po
Procedure: Human plasma samples obtained during this study were analyzed at PharmaNet USA, Inc. Princeton, New Jersey, USA. The samples were analyzed for galunisertib levels using 2 validated liquid chromatography with tandem mass spectrometry methods. For the high-range method (PharmaNet USA, Inc. SOP TM.589), the lower limit of quantification was 5.000 ng/mL and the upper limit of quantification was 1000.000 ng/mL. The intra-assay accuracy (% relative error) during validation ranged from 1.800 to 10.222 %. The intra-assay precision (% relative standard deviation) during validation ranged from 3.119 to 18.389 %. Samples above the limit of quantification were diluted to yield results within the calibrated range. Samples below the lower limit of quantification using the high-range method were reanalyzed using the low-range method. For the low-range method (PharmaNet USA, Inc. SOP TM.563), the lower limit of quantification was 0.050 ng/mL and the upper limit of quantification was 10.000 ng/mL. The intra-assay accuracy during validation ranged from −5.080 to −2.000 %. The intra-assay precision during validation ranged from 4.404 to 12.245 %.
All patients who received at least 1 dose of galunisertib and had samples collected were subjected to PK analyses. The PK parameters for galunisertib were computed by standard non-compartmental methods of analysis using Win Nonlin Professional Edition (version 5.3) on a computer that met or exceeded the minimum system requirements for this program with appropriate and validated software. The parameters reported from the non-compartmental analyses included the maximum plasma concentration (Cmax), area under the curve from zero to 24 h (AUC(0–24)), AUC from zero time to infinity (AUC(0–∞)), half-life volume of distribution (Vd) and clearance (CL).
Clinical benefit in this study has been defined as a patient with either a complete response (CR), partial response (PR), and stable disease (SD) ≥6 cycles. MAIP results from plasma samples taken at baseline were compared between patients completing >6 cycles and ≤6 cycles using ANOVA. The analysis included controlling the false discovery rate to 30 % using the Benjamini-Hochberg method. Boxplots showing the distributions at baseline of the potentially prognostic markers are provided. Observed TGF-β-stimulated pSMAD2 (pSMAD2^+) in PBMCs was normalized by TGF-β-stimulated tSMAD2 [(tSMAD2^+) ^0.6[9, 10]] prior to determining the minimum normalized pSMAD2^+ and calculating percentage inhibition post-baseline for each patient. Baseline and minimum post-baseline values for each patient together with maximum percentage inhibition are presented on a line and scatter plot for each patient in Cohort 3 and summary statistics by time point provided from a standard mixed effects regression model, fitting log normalized pSMAD2^+ to the fixed effects of log baseline normalized pSMAD2^+, nominal time point, dose and their interaction and patient as a random effect.
• Part A (Fig. 1 and Table 2): Non-compartmental PK analysis was performed on 37 of the 39 patients treated in Part A: n=3 in Cohort 1 (40 mg/day); n=4 in Cohort 2 (80 mg/day); n=15 in Cohort 3 (160 mg/day); n=6 in Cohort 4 (240 mg/day); n=9 in Cohort 5 (300 mg/day). […] The terminal half-life was approximately 8 h. At steady state, on Day 14, the median time to maximum concentration (tmax,ss) ranged from 0.5 to 2 h post dose, independent of dose. Formal assessment of time-linear kinetics was not possible, regardless of whether or not the observed exposures of AUC(0–∞) Day 1 and AUC(0–∞) Day 14 were similar. […] Both the maximum observed plasma concentration at steady state (Cmax,ss) and exposure increased with dose as indicated from the statistical analysis of the PK parameters. […] A population PK model was developed based on data in Cohorts 1 through 5 [7]. […] PK profiles of galunisertib following administration of 160 mg/day (Cohort 6) and 300 mg/day (Cohort 7) on Days 6 and 7 were similar.

MDC/CCL22 = assay: Multi-analyte immunoassay panel (MAIP) of plasma proteins; type: in vivo, Human; conditions: Part A and Part B, data not shown
Procedure: Plasma samples were analyzed for PD assessments by using a multi-analyte immunoassay panel (MAIP) (Myriad RBM, Austin, TX). The MAIP measurements included 89 plasma proteins. These proteins were evaluated at baseline and during the first cycle of treatment.
MDC/CCL22 is associated with modulating T regulatory cells and it may be involved in the activation of antigen-presenting cells. Whether such levels confer a better prognosis remains to be assessed. The lack of a change in MDC/CCL22 may perhaps indicate that this chemokine is not affected by galunisertib, but long-term examinations will be needed to further confirm this initial impression. Other plasma proteins were also found to be at different levels for patients treated with ≥6 cycles or ≤6 cycles.

ID1 and CD44 = tested on: ID1 and CD44; design: method as in PMID 21156287; conditions: 1 patient, surgical re-resection during off-period of intermittent dosing; cited from earlier work
[2] = Part A, 240 mg/day oral BID, day 14 steady state, Cycle 2, individual patients
[3] = Part A, 7.5-fold dose range, power model

AUC0,∞ individual parameters (n <3) [1, 2]: 2500- ^a ng*h/mL | Cmax, ss individual parameters (n <3) [1, 2]: 610- ^a ng/mL | PK profile in patients on enzyme-inducing anti-epileptic medication versus other patients ([1]; Part A, 3 patients (2 in Cohort 3, 1 in Cohort 4)): do not appear to differ | accumulation over the 14-day BID dosing regimen ([1]; Part A, 5 cohorts): no accumulation | estimated ratio of geometric means for AUC(0-∞) between 40 and 300 mg daily [1, 3]: 5.61 | estimated ratio of geometric means for Cmax,ss between 40 and 300 mg daily [1, 3]: 3.99 | PK profile with co-administration of proton pump inhibitors ([1]; Part A, 14 patients on PPI, Day 14): do not appear to be altered | fold increase of AUC(0–∞) for a doubling of dose ([1]; Part A, 40–300 mg, power model): 1.81 fold | fold increase of Cmax,ss for a doubling of dose ([1]; Part A, 40–300 mg, power model): 1.61 fold | duration of measurable plasma concentrations ([1]; Part A, oral, patients): at least 48 h | effect of co-administration of lomustine on galunisertib PK profile ([1]; Part B, 160 mg/day and 300 mg/day, Days 6 and 7): did not appear to alter | dose proportionality of PK ([1]; any doubling of dose within 40–300 mg, particularly AUC(0-∞)): dose-proportional PK | Tmax ([1]; human, plasma, oral, Part A, steady state, Day 14, post dose, independent of dose, read-out: median time to maximum concentration (tmax,ss)): 1800 to 7200 s | Cmax ([1]; human, plasma, 40 mg/day, Part A, 40 mg/day oral BID, day 14 steady state, Cycle 1, patients, read-out: Cmax, ss mean (% CV)): 220 ng/mL | Cmax ([1]; human, plasma, 80 mg/day, Part A, 80 mg/day oral BID, day 14 steady state, Cycle 1, patients, read-out: Cmax, ss mean (% CV)): 350 ng/mL | AUC(0-inf) ([1]; human, plasma, 160 mg/day, Part A, 160 mg/day oral BID, day 14 steady state, Cycle 1, patients, read-out: AUC0,∞ mean (% CV)): 2140 ng·h/mL | Cmax ([1]; human, plasma, 160 mg/day, Part A, 160 mg/day oral BID, day 14 steady state, Cycle 1, patients, read-out: Cmax, ss mean (% CV)): 630 ng/mL | AUC(0-inf) ([1]; human, plasma, 160 mg/day, Part A, 160 mg/day oral BID, day 14 steady state, Cycle 2, patients, read-out: AUC0,∞ mean (% CV)): 2430 ng·h/mL | Cmax ([1]; human, plasma, 160 mg/day, Part A, 160 mg/day oral BID, day 14 steady state, Cycle 2, patients, read-out: Cmax, ss mean (% CV)): 790 ng/mL | AUC(0-inf) ([1]; human, plasma, 240 mg/day, Part A, 240 mg/day oral BID, day 14 steady state, Cycle 1, patients, read-out: AUC0,∞ mean (% CV)): 3060 ng·h/mL | Cmax ([1]; human, plasma, 240 mg/day, Part A, 240 mg/day oral BID, day 14 steady state, Cycle 1, patients, read-out: Cmax, ss mean (% CV)): 660 ng/mL | AUC(0-inf) ([1]; human, plasma, 240 mg/day, Part A, 240 mg/day oral BID, day 14 steady state, Cycle 2, individual patients, read-out: AUC0,∞ individual parameters (n <3)): 2900 ng·h/mL | Cmax ([1]; human, plasma, 240 mg/day, Part A, 240 mg/day oral BID, day 14 steady state, Cycle 2, individual patients, read-out: Cmax, ss individual parameters (n <3)): 520 ng/mL | AUC(0-inf) ([1]; human, plasma, 300 mg/day, Part A, 300 mg/day oral BID, day 14 steady state, Cycle 1, patients, read-out: AUC0,∞ mean (% CV)): 3730 ng·h/mL | Cmax ([1]; human, plasma, 300 mg/day, Part A, 300 mg/day oral BID, day 14 steady state, Cycle 1, patients, read-out: Cmax, ss mean (% CV)): 990 ng/mL | AUC(0-inf) ([1]; human, plasma, 300 mg/day, Part A, 300 mg/day oral BID, day 14 steady state, Cycle 2, patients, read-out: AUC0,∞ mean (% CV)): 2930 ng·h/mL | Cmax ([1]; human, plasma, 300 mg/day, Part A, 300 mg/day oral BID, day 14 steady state, Cycle 2, patients, read-out: Cmax, ss mean (% CV)): 800 ng/mL | half-life ([1]; human, plasma, Part A, oral, patients, read-out: terminal half-life (converted)): ~8 h | between-patient coefficient of variation for AUC(0-∞) at steady state ([1]; pooled across the 5 cohorts): 42% | between-patient coefficient of variation for Cmax,ss ([1]; pooled across the 5 cohorts): 55% | within-patient coefficient of variation for AUC(0-∞) at steady state ([1]; pooled across the 5 cohorts): 29% | within-patient coefficient of variation for Cmax,ss ([1]; pooled across the 5 cohorts): 31%
SMILES: Cc1cccc(-c2nn3c(c2-c2ccnc4ccc(C(N)=O)cc24)CCC3)n1 [galunisertib]
post-treatment plasma levels of MDC/CCL22 (MDC/CCL22): did not show a change | expression of ID1 and CD44 in tumor tissue after treatment (ID1 and CD44): reduced
